In patent publication US8796256B2 (Janssen Pharmaceutica NV, priority 2010, dated 2014):

target: T1, ERR1 (also known as ERR-α or ERR-1) (Homo sapiens, UniProt P11474); test: TR-FRET assay (disruption of co-activator peptide binding to ERR1 LBD); format: biochemical; conditions: 6 nM 6His-ERR1LBD, 6 nM GST-SRC-2 peptide; average of 3 independent experiments
T1 sequence (P11474 193-421 limits assumed): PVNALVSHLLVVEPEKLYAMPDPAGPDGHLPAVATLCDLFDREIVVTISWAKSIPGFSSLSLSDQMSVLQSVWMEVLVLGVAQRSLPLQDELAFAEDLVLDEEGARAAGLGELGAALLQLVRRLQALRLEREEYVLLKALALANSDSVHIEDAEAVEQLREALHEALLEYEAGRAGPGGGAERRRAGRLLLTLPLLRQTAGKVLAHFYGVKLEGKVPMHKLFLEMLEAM
Outline: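 Homogeneous TR-FRET measuring displacement of GST-hSRC2 co-activator peptide (6 nM) from His-tagged ERR1 LBD (6 nM), detected with α-GST Eu cryptate (30 nM) and α-His-XL665 (7.5 nM). Buffer 25 mM Tris pH 8, 2.5 mM Hepes, 20 mM KCl, 1 mM DTT, 0.05 mg/mL delipidated BSA; equilibration 4-18 h at 25° C. Hyperbolic dose-response fit, mean of 3 experiments.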

Compound | EC50 [µM]
O=C(CN1C(=O)S/C(=C\c2ccc3c(c2)c(Cl)nn3Cc2ccc(Cl)cc2C(F)(F)F)C1=O)NS(=O)(=O)N1CCCC1 [Compound 375, 2-[(5Z)-5-({3-Chloro-1-[4-chloro-2-(trifluoromethyl)benzyl]-1H-indazol-5-yl}methylidene)-2,4-dioxo-1,3-thiazolidin-3-yl]-N-(pyrrolidin-1-ylsulfonyl)acetamide] | 0.07
O=C(O)/C=C/CN1C(=O)S/C(=C\c2ccc3c(cnn3Cc3ccc(Cl)cc3C(F)(F)F)c2)C1=O [Compound 376, (2E)-4-[(5Z)-5-({1-[4-Chloro-2-(trifluoromethyl)benzyl]-1H-indazol-5-yl}methylidene)-2,4-dioxo-1,3-thiazolidin-3-yl]but-2-enoic acid] | 0.065
O=C(O)c1ccc(CN2C(=O)S/C(=C\c3ccc4c(cnn4Cc4ccc(Cl)cc4C(F)(F)F)c3)C2=O)cc1 [Compound 377, 4-{[(5Z)-5-({1-[4-Chloro-2-(trifluoromethyl)benzyl]-1H-indazol-5-yl}methylidene)-2,4-dioxo-1,3-thiazolidin-3-yl]methyl}benzoic acid] | 0.067
O=C(O)c1cccc(CN2C(=O)S/C(=C\c3ccc4c(cnn4Cc4ccc(Cl)cc4C(F)(F)F)c3)C2=O)c1 [Compound 378, 3-{[(5Z)-5-({1-[4-Chloro-2-(trifluoromethyl)benzyl]-1H-indazol-5-yl}methylidene)-2,4-dioxo-1,3-thiazolidin-3-yl]methyl}benzoic acid] | 0.066
O=C(O)c1ccccc1CN1C(=O)S/C(=C\c2ccc3c(cnn3Cc3ccc(Cl)cc3C(F)(F)F)c2)C1=O [Compound 379, 2-{[(5Z)-5-({1-[4-Chloro-2-(trifluoromethyl)benzyl]-1H-indazol-5-yl}methylidene)-2,4-dioxo-1,3-thiazolidin-3-yl]methyl}benzoic acid] | 0.021
O=C(O)c1ccc(CN2C(=O)S/C(=C\c3ccc4c(cnn4Cc4ccc(Cl)cc4C(F)(F)F)c3)C2=O)o1 [Compound 380, 5-{[(5Z)-5-({1-[4-Chloro-2-(trifluoromethyl)benzyl]-1H-indazol-5-yl}methylidene)-2,4-dioxo-1,3-thiazolidin-3-yl]methyl}furan-2-carboxylic acid] | 0.015
O=C1S/C(=C\c2ccc3c(cnn3Cc3ccc(Cl)cc3C(F)(F)F)c2)C(=O)N1[C@@H]1CCNC[C@H]1F [Compound 381, (5Z)-5-({1-[4-Chloro-2-(trifluoromethyl)benzyl]-1H-indazol-5-yl}methylidene)-3-[(3R,4R)-3-fluoropiperidin-4-yl]-1,3-thiazolidine-2,4-dione] | 0.028
O=C1S/C(=C\c2ccc3c(cnn3Cc3ccc(Cl)cc3C(F)(F)F)c2)C(=O)N1[C@H]1CCNC[C@@H]1F [Compound 382, (5Z)-5-({1-[4-Chloro-2-(trifluoromethyl)benzyl]-1H-indazol-5-yl}methylidene)-3-[(3S,4S)-3-fluoropiperidin-4-yl]-1,3-thiazolidine-2,4-dione] | 0.011
O=C1S/C(=C\c2ccc3c(cnn3Cc3ccc(Cl)cc3C(F)(F)F)c2)C(=O)N1CCNS(=O)(=O)CCl [Compound 385, 1-Chloro-N-{2-[(5Z)-5-({1-[4-chloro-2-(trifluoromethyl)benzyl]-1H-indazol-5-yl}methylidene)-2,4-dioxo-1,3-thiazolidin-3-yl]ethyl}methanesulfonamide] | 0.039
CCN1CC[C@@H](N2C(=O)S/C(=C\c3ccc4c(cnn4Cc4ccc(Cl)cc4C(F)(F)F)c3)C2=O)[C@H](F)C1 [Compound 386, (5Z)-5-({1-[4-Chloro-2-(trifluoromethyl)benzyl]-1H-indazol-5-yl}methylidene)-3-[(3R,4R)-1-ethyl-3-fluoropiperidin-4-yl]-1,3-thiazolidine-2,4-dione] | 0.042
CC(C)N1CC[C@@H](N2C(=O)S/C(=C\c3ccc4c(cnn4Cc4ccc(Cl)cc4C(F)(F)F)c3)C2=O)[C@H](F)C1 [Compound 387, (5Z)-5-({1-[4-Chloro-2-(trifluoromethyl)benzyl]-1H-indazol-5-yl}methylidene)-3-[(3R,4R)-3-fluoro-1-(1-methylethyl)piperidin-4-yl]-1,3-thiazolidine-2,4-dione] | 0.123
N#CCN1CC[C@@H](N2C(=O)S/C(=C\c3ccc4c(cnn4Cc4ccc(Cl)cc4C(F)(F)F)c3)C2=O)[C@H](F)C1 [Compound 388, {(3R,4R)-4-[(5Z)-5-({1-[4-Chloro-2-(trifluoromethyl)benzyl]-1H-indazol-5-yl}methylidene)-2,4-dioxo-1,3-thiazolidin-3-yl]-3-fluoropiperidin-1-yl}acetonitrile] | 0.034
CC(=O)NCCN1C(=O)S/C(=C\c2ccc3c(cnn3Cc3ccc(Cl)cc3C(F)(F)F)c2)C1=O [Compound 389, N-{2-[(5Z)-5-({1-[4-Chloro-2-(trifluoromethyl)benzyl]-1H-indazol-5-yl}methylidene)-2,4-dioxo-1,3-thiazolidin-3-yl]ethyl}acetamide] | 0.026
O=C1S/C(=C\c2ccc3c(cnn3Cc3ccc(Cl)cc3C(F)(F)F)c2)C(=O)N1CCNC(=O)C(F)(F)F [Compound 390, N-{2-[(5Z)-5-({1-[4-Chloro-2-(trifluoromethyl)benzyl]-1H-indazol-5-yl}methylidene)-2,4-dioxo-1,3-thiazolidin-3-yl]ethyl}-2,2,2-trifluoroacetamide] | 0.064
O=C1S/C(=C\c2ccc3c(cnn3Cc3ccc(Cl)cc3C(F)(F)F)c2)C(=O)N1CCNS(=O)(=O)c1ccccc1 [Compound 391, N-{2-[(5Z)-5-({1-[4-Chloro-2-(trifluoromethyl)benzyl]-1H-indazol-5-yl}methylidene)-2,4-dioxo-1,3-thiazolidin-3-yl]ethyl}benzenesulfonamide] | 0.215

Next, values leading:

EC50 [µM] | Compound
0.215 | O=C1S/C(=C\c2ccc3c(cnn3Cc3ccc(Cl)cc3C(F)(F)F)c2)C(=O)N1CCNS(=O)(=O)c1ccc(C(F)(F)F)cc1 [Compound 392, N-{2-[(5Z)-5-({1-[4-Chloro-2-(trifluoromethyl)benzyl]-1H-indazol-5-yl}methylidene)-2,4-dioxo-1,3-thiazolidin-3-yl]ethyl}-4-(trifluoromethyl) benzenesulfonamide]
0.032 | CS(=O)(=O)NCCN1C(=O)S/C(=C\c2ccc3c(cnn3Cc3ccc(Cl)cc3C(F)(F)F)c2)C1=O [Compound 393, N-{2-[(5Z)-5-({1-[4-Chloro-2-(trifluoromethyl)benzyl]-1H-indazol-5-yl}methylidene)-2,4-dioxo-1,3-thiazolidin-3-yl]ethyl}methanesulfonamide]
0.122 | CN(CCN1C(=O)S/C(=C\c2ccc3c(cnn3Cc3ccc(Cl)cc3C(F)(F)F)c2)C1=O)C(=O)C(F)(F)F [Compound 394, N-{2-[(5Z)-5-({1-[4-Chloro-2-(trifluoromethyl)benzyl]-1H-indazol-5-yl}methylidene)-2,4-dioxo-1,3-thiazolidin-3-yl]ethyl}-2,2,2-trifluoro-N-methylacetamide]
0.46 | CN(CCN1C(=O)S/C(=C\c2ccc3c(cnn3Cc3ccc(Cl)cc3C(F)(F)F)c2)C1=O)S(=O)(=O)c1ccc(C(F)(F)F)cc1 [Compound 395, N-{2-[(5Z)-5-({1-[4-Chloro-2-(trifluoromethyl)benzyl]-1H-indazol-5-yl}methylidene)-2,4-dioxo-1,3-thiazolidin-3-yl]ethyl}-N-methyl-4-(trifluoromethyl) benzenesulfonamide]
0.112 | CN(CCN1C(=O)S/C(=C\c2ccc3c(cnn3Cc3ccc(Cl)cc3C(F)(F)F)c2)C1=O)S(=O)(=O)N1CCCC1 [Compound 396, N-{2-[(5Z)-5-({1-[4-Chloro-2-(trifluoromethyl)benzyl]-1H-indazol-5-yl}methylidene)-2,4-dioxo-1,3-thiazolidin-3-yl]ethyl}-N-methylpyrrolidine-1-sulfonamide]
0.023 | CN(CCN1C(=O)S/C(=C\c2ccc3c(cnn3Cc3ccc(Cl)cc3C(F)(F)F)c2)C1=O)S(C)(=O)=O [Compound 397, N-{2-[(5Z)-5-({1-[4-Chloro-2-(trifluoromethyl)benzyl]-1H-indazol-5-yl}methylidene)-2,4-dioxo-1,3-thiazolidin-3-yl]ethyl}-N-methylmethanesulfonamide]
0.01 | O=C1S/C(=C\c2ccc3c(cnn3Cc3ccc(Cl)cc3C(F)(F)F)c2)C(=O)N1CCNS(=O)(=O)N1CCOCC1 [Compound 398, N-{2-[(5Z)-5-({1-[4-Chloro-2-(trifluoromethyl)benzyl]-1H-indazol-5-yl}methylidene)-2,4-dioxo-1,3-thiazolidin-3-yl]ethyl}morpholine-4-sulfonamide]
0.079 | O=C1S/C(=C\c2ccc3c(cnn3Cc3ccc(Cl)cc3C(F)(F)F)c2)C(=O)N1CCNS(=O)(=O)N1CCCC1 [Compound 399, N-{2-[(5Z)-5-({1-[4-Chloro-2-(trifluoromethyl)benzyl]-1H-indazol-5-yl}methylidene)-2,4-dioxo-1,3-thiazolidin-3-yl]ethyl}pyrrolidine-1-sulfonamide]
0.062 | Nc1nc(CN2C(=O)S/C(=C\c3ccc4c(cnn4Cc4ccc(Cl)cc4C(F)(F)F)c3)C2=O)cs1 [Compound 400, (5Z)-3-[(2-Amino-1,3-thiazol-4-yl)methyl]-5-({1-[4-chloro-2-(trifluoromethyl)benzyl]-1H-indazol-5-yl}methylidene)-1,3-thiazolidine-2,4-dione]
0.036 | O=C1S/C(=C\c2ccc3c(cnn3Cc3ccc(Cl)cc3C(F)(F)F)c2)C(=O)N1Cc1ncon1 [Compound 401, (5Z)-5-({1-[4-Chloro-2-(trifluoromethyl)benzyl]-1H-indazol-5-yl}methylidene)-3-(1,2,4-oxadiazol-3-ylmethyl)-1,3-thiazolidine-2,4-dione]
